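1) Cells in 96-well plates. 2) Compound, 48 h, 5 concentrations. 3) Linear interpolation between surrounding doses. 4) Unreached endpoint = highest concentration. Abbreviation: GI50, concentration required for 50% inhibition of growth. TGI: concentration producing complete growth inhibition.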
What was measured:
Assay in all cases: NCI-60 cell line screen, 48 h
M14 melanoma = system: M14 melanoma
HCC-2998 colon = system: HCC-2998 colon
KM12 colon = system: KM12 colon
HOP-62 NSCLC = system: HOP-62 NSCLC
COLO 205 colon = system: COLO 205 colon
SW-620 colon = system: SW-620 colon
DU-145 prostate = system: DU-145 prostate
OVCAR-4 ovarian = system: OVCAR-4 ovarian
UACC-257 melanoma = system: UACC-257 melanoma
ACHN renal = system: ACHN renal
MDA-MB-435 = system: MDA-MB-435
NCI/ADR-RES ovarian = system: NCI/ADR-RES ovarian
EKVX NSCLC = system: EKVX NSCLC
NCI-H226 lung = system: NCI-H226 lung
TK-10 renal = system: TK-10 renal
PC-3 prostate = system: PC-3 prostate
OVCAR-3 ovarian = system: OVCAR-3 ovarian
MALME-3M melanoma = system: MALME-3M melanoma
SF-268 CNS = system: SF-268 CNS
SF-539 CNS = system: SF-539 CNS
SNB-75 CNS = system: SNB-75 CNS
SF-295 CNS = system: SF-295 CNS
NCI-H460 lung = system: NCI-H460 lung
HCT-116 colon = system: HCT-116 colon
A549 NSCLC = system: A549 NSCLC
MCF7 breast = system: MCF7 breast
NCI-H23 lung = system: NCI-H23 lung
IGROV1 ovarian = system: IGROV1 ovarian
SK-MEL-2 melanoma = system: SK-MEL-2 melanoma
OVCAR-8 ovarian = system: OVCAR-8 ovarian
NCI-H522 lung = system: NCI-H522 lung
SK-OV-3 ovarian = system: SK-OV-3 ovarian
A498 renal = system: A498 renal
LOX IMVI melanoma = system: LOX IMVI melanoma
SK-MEL-5 melanoma = system: SK-MEL-5 melanoma
RPMI-8226 leukemia = system: RPMI-8226 leukemia
SK-MEL-28 melanoma = system: SK-MEL-28 melanoma
U251 CNS = system: U251 CNS
MOLT-4 leukemia = system: MOLT-4 leukemia
HT29 colon = system: HT29 colon
OVCAR-5 ovarian = system: OVCAR-5 ovarian
MDA-MB-231 breast = system: MDA-MB-231 breast
K-562 leukemia = system: K-562 leukemia
SR leukemia = system: SR leukemia
SNB-19 CNS = system: SNB-19 CNS
T-47D breast = system: T-47D breast
HCT-15 colon = system: HCT-15 colon
BT-549 breast = system: BT-549 breast
CAKI-1 renal = system: CAKI-1 renal
HL-60(TB) leukemia = system: HL-60(TB) leukemia
HOP-92 NSCLC = system: HOP-92 NSCLC
CCRF-CEM leukemia = system: CCRF-CEM leukemia
UACC-62 melanoma = system: UACC-62 melanoma
UO-31 renal = system: UO-31 renal
RXF 393 renal = system: RXF 393 renal
786-0 renal = system: 786-0 renal
HS 578T breast = system: HS 578T breast
SN12C renal = system: SN12C renal

With CCC(CC)n1c(=O)c(SC2=NC3C(NN2)N(CC)C(=O)N3CC)c(C(=O)O)c2ccccc21 (configuration not stated) the GI50 (M14 melanoma) was 1.05 µM, the TGI (M14 melanoma) was > 55.2 µM and the GI50 (HCC-2998 colon) was 1.08 µM. The GI50 (KM12 colon) was 1.2 µM, the TGI (KM12 colon) was > 100 µM and the GI50 (HOP-62 NSCLC) was 1.46 µM. The TGI (HOP-62 NSCLC) was > 57 µM, the GI50 (COLO 205 colon) was 0.771 µM and the TGI (COLO 205 colon) was 1.83 µM. The GI50 (SW-620 colon) was 1.48 µM, the TGI (SW-620 colon) was > 100 µM and the GI50 (DU-145 prostate) was 1.3 µM. For the same compound, the TGI (DU-145 prostate) was > 100 µM, the GI50 (OVCAR-4 ovarian) was 6.56 µM and the TGI (OVCAR-4 ovarian) was > 100 µM. For the same compound, the GI50 (UACC-257 melanoma) was 5.53 µM, the TGI (UACC-257 melanoma) was > 100 µM and the GI50 (ACHN renal) was 1.58 µM. The TGI (ACHN renal) was > 100 µM, the GI50 (MDA-MB-435) was 2.03 µM and the TGI (MDA-MB-435) was 5.01 µM. The GI50 (NCI/ADR-RES ovarian) was 0.974 µM, the GI50 (EKVX NSCLC) was 6.67 µM and the TGI (EKVX NSCLC) was > 100 µM. The GI50 (NCI-H226 lung) was 1.11 µM, the TGI (NCI-H226 lung) was 5.78 µM and the GI50 (TK-10 renal) was 14.5 µM. For the same compound, the TGI (TK-10 renal) was > 89.8 µM, the GI50 (PC-3 prostate) was 1.25 µM and the TGI (PC-3 prostate) was > 100 µM. It also gave a GI50 (OVCAR-3 ovarian) of 0.966 µM, a TGI (OVCAR-3 ovarian) of 3.49 µM and a GI50 (MALME-3M melanoma) of 2.66 µM. For the same compound, the TGI (MALME-3M melanoma) was > 100 µM, the GI50 (SF-268 CNS) was 2.03 µM and the TGI (SF-268 CNS) was > 100 µM. It also gave a GI50 (SF-539 CNS) of 0.811 µM, a TGI (SF-539 CNS) of 2.38 µM and a GI50 (SNB-75 CNS) of 1.21 µM. The TGI (SNB-75 CNS) was > 33.4 µM, the GI50 (SF-295 CNS) was 1.02 µM and the TGI (SF-295 CNS) was > 46.8 µM. For the same compound, the GI50 (NCI-H460 lung) was 1.11 µM, the TGI (NCI-H460 lung) was > 54.1 µM and the GI50 (HCT-116 colon) was 1.01 µM. The TGI (HCT-116 colon) was > 33.7 µM, the GI50 (A549 NSCLC) was 1.51 µM and the TGI (A549 NSCLC) was > 100 µM. For the same compound, the GI50 (MCF7 breast) was 1.03 µM, the TGI (MCF7 breast) was > 100 µM and the GI50 (NCI-H23 lung) was 3.59 µM. For the same compound, the TGI (NCI-H23 lung) was > 100 µM, the GI50 (IGROV1 ovarian) was 1.5 µM and the TGI (IGROV1 ovarian) was > 100 µM. The GI50 (SK-MEL-2 melanoma) was 1.08 µM, the TGI (SK-MEL-2 melanoma) was > 55 µM and the GI50 (OVCAR-8 ovarian) was 1.05 µM. The GI50 (NCI-H522 lung) was 0.578 µM, the TGI (NCI-H522 lung) was 1.46 µM and the GI50 (SK-OV-3 ovarian) was 1.45 µM. For the same compound, the TGI (SK-OV-3 ovarian) was > 94.1 µM, the GI50 (A498 renal) was 33.7 µM and the TGI (A498 renal) was > 87.2 µM. The GI50 (LOX IMVI melanoma) was 1.26 µM, the TGI (LOX IMVI melanoma) was > 100 µM and the GI50 (SK-MEL-5 melanoma) was 1.38 µM. For the same compound, the TGI (SK-MEL-5 melanoma) was 7.64 µM, the GI50 (RPMI-8226 leukemia) was 3.76 µM and the TGI (RPMI-8226 leukemia) was > 100 µM. For the same compound, the GI50 (SK-MEL-28 melanoma) was 2.2 µM, the TGI (SK-MEL-28 melanoma) was > 100 µM and the GI50 (U251 CNS) was 1.13 µM. For the same compound, the TGI (U251 CNS) was > 100 µM, the GI50 (MOLT-4 leukemia) was 1.15 µM and the TGI (MOLT-4 leukemia) was > 48.2 µM. For the same compound, the GI50 (HT29 colon) was 0.909 µM, the GI50 (OVCAR-5 ovarian) was 1.28 µM and the TGI (OVCAR-5 ovarian) was > 100 µM. For the same compound, the GI50 (MDA-MB-231 breast) was 1.27 µM, the TGI (MDA-MB-231 breast) was > 71.9 µM and the GI50 (K-562 leukemia) was 1 µM. For the same compound, the TGI (K-562 leukemia) was > 100 µM, the GI50 (SR leukemia) was 0.805 µM and the TGI (SR leukemia) was > 49 µM. For the same compound, the GI50 (SNB-19 CNS) was 1.66 µM, the TGI (SNB-19 CNS) was > 100 µM and the GI50 (T-47D breast) was 6.14 µM. The TGI (T-47D breast) was > 100 µM, the GI50 (HCT-15 colon) was 0.969 µM and the TGI (HCT-15 colon) was > 100 µM. For the same compound, the GI50 (BT-549 breast) was 1.47 µM, the TGI (BT-549 breast) was 6.72 µM and the GI50 (CAKI-1 renal) was 1.22 µM. It also gave a TGI (CAKI-1 renal) of 32.3 µM, a GI50 (HL-60(TB) leukemia) of 0.767 µM and a TGI (HL-60(TB) leukemia) of 2.3 µM. The GI50 (HOP-92 NSCLC) was 18.3 µM, the TGI (HOP-92 NSCLC) was > 100 µM and the GI50 (CCRF-CEM leukemia) was 1.13 µM. For the same compound, the TGI (CCRF-CEM leukemia) was > 100 µM, the GI50 (UACC-62 melanoma) was 1.2 µM and the TGI (UACC-62 melanoma) was 36.5 µM. For the same compound, the GI50 (UO-31 renal) was 1.54 µM, the TGI (UO-31 renal) was > 100 µM and the GI50 (RXF 393 renal) was 0.805 µM. For the same compound, the TGI (RXF 393 renal) was 3.28 µM, the GI50 (786-0 renal) was 1.53 µM and the TGI (786-0 renal) was > 100 µM. It also gave a GI50 (HS 578T breast) of 1.22 µM, a TGI (HS 578T breast) of 99.2 µM and a GI50 (SN12C renal) of 1.31 µM. For the same compound, the TGI (SN12C renal) was > 100 µM.

From PubChem BioAssay (NCI)
